This is an account of results in patent US20120004157A1, “HYDROXYPROLINE COMPOSITIONS AND USES THEREOF” (Bergen Teknologioverforing AS, priority 2007, published 2012).

The structures appear in SMILES notation. Entries after “also recorded” stand apart in the source; their conditions may differ.

One series concerns psoriasis. The conditions noted are these: Phase III psoriasis study, topical formulation; not statistically significant; cited from earlier work.
Series [1] concerns Atlantic salmon (Salmo salar). Put plainly: 88 days growth experiment, growth and feed performance. The series is classed as in vivo. The conditions noted are these: 88 days feeding. The source says: The diets used were composed such that they are equal in protein, lipid and energy, and designed to vary only in level of Hydroxyproline. The small amounts of Hydroxyproline added (L-4-Hydroksyproline, >99.0% pure, Fluka BioChemika. Sigma-Aldrich Chemie GmbH) were exchanged with fish meal, and the diets were otherwise adjusted with the content of raw wheat to secure equal chemical composition. Five different levels of Hydroxyproline were used in a regression design with two replicates for each level, except the diet without Hydroxyproline addition that was run in triplicate tanks. The levels used of hydroxyproline were 0, 0.7 gkg^−1, 1.4 gkg^−1, 2.8 gkg^−1 and 5.6 gkg^−1. As a negative control, Proline (L-Proline, (Hydroxy-L-Proline Free) Sigma grade, Sigma Chemical Company) was added to a level of 2.8 gkg^−1.
Atlantic salmon (Salmo salar) was obtained from Salmobreed May 2006. The fish was prevaccinated with Trippel Forte and was acclimated for 56 days before the trial started. The fish was given EWOS Opal Boost 50 3A, 3 mm pellets during this period. The fish was randomly distributed among 14 fiberglass tanks (1.5×1.5×1 m^3) with 80 fish per tank. Diet 1 and Diet 6 were run in triplicate tanks. Diet 2, Diet 3, Diet 4 and Diet 5 was run in duplicate tanks. Data are given also for a fish meal diet with no plant protein included. This diet was run simultaneously with fish of the same size, origin and treatment. This diet (Diet 7) was run in 2 m×2 m×1 m tanks in triplicate in a parallel experiment. The tanks were supplied with 75 I min^−1 of seawater taken from a depth of 50 m with average salinity of 3.2-3.3%. Water temperature was kept constant at 10.4±0.4° C. during the acclimatization and the experimental period, using a heat exchanger to adjust the sea water temperature. Throughout the experimental period of 88 days, the fish were exposed to 24 h artificial light. Great care was taken to reduce disturbance from the environment. Automatic feeders were used to add feed from 05.00 to 08.00 hrs and from 14.00 to 03.00 hrs. The level of feeding was regulated in such a way that offered feed was 110% of expected consumption based on daily monitoring of wasted feed. Uneaten feed was continuously removed by automatic collection and separated from feces using an Excess Fishfeed Collector (Holland Teknologi, Norway). Feed intake was measured daily as the difference between total feed given and total uneaten feed collected. Feed intake for the total experimental period was measured as the sum of the daily feed intakes, divided by feeding days and average fish weight during the experimental period; (start weight+final weight)/2. Feeding was sustained until the fish was sampled for analyses.
The six experimental diets were randomly assigned to the 14 tanks, with 3 replicate tanks for Diet 1 and Diet 6 and to duplicate tanks for the other experimental diets. Initial fish weights and lengths were recorded. Twenty fish representing the weight ranges were sampled, killed by a blow on the head, frozen and kept at −80° C. pending analyses of fish at start. Final weights were determined for each fish in all tanks. At the end of the feeding period, the fish were anaesthetized with Eugonol (iso-eugunol was diluted 1:1 with ethanol and the diluted solution was added 15 ml per m^3 water in the tanks). After about 15 min, 10 fish from each tank were sampled, killed by a blow in the head, gutted and weight of slaughtered fish, liver and viscera were noted. Five other fish from each tank were pooled and frozen for pending analyses.
The 88 days growth experiment was run successfully with a thermal growth coefficient (TGC) of 2.5 for the fish meal control diet. Some loss of fish occurred during the experimental period and some fish seemed not to develop normally. […]

The nature of series [2]: Blood plasma levels of hydroxyproline in trout fed 90 days. The conditions noted are these: for blood plasma levels of Hydroxyproline: trout fed for 90 days, FIG. 2. The class given is in vivo. As for the experimental part:
(§1) Trout were fed fish hydrolysate and fractions thereof to identify bioactive compounds (see Table 2).
The y axis is plasma levels in micromoles per 100 ml and the x-axis is the dietary level of component in g per kg diet.

Series [3] in a line: Retention of dietary hydroxyproline in fish. The class given is in vivo. The conditions noted are these: FIG. 1. How it is done: as §1
The experiments where fish were fed a diet including varying levels of hydroxyproline were performed as described above.
The retention of hydroxyproline is statistically correlated to the dietary level. Low dietary levels (0.8 g per kg diet) give retention of close to 100% while higher dietary levels (>4.5 g per kg diet) gives retention of 20-30%.

For series [4], the system named is Atlantic salmon (Salmo salar). Put plainly: Subjective scoring of wounds on skin, damage on dorsal fin and loss of shells. The class given is in vivo. The conditions noted are these: scale from 0 (no damage) to 5 (severe damages), 88 days feeding, Diets 2-5 = 0.7, 1.4, 2.8, 5.6 gkg−1 added hydroxyproline, mean ± SD. How it is done: Wounds on skin, damages on dorsal fin and loss of shells were evaluated in the 10 salmons from each tank. The measure was subjectively based on a scale from 0 (no damage) to 5 (severe damages). The data and statistics are included in the table below (based on 110 measures) and shown in the figure based on average values for each tank). The statistics given are based on linear regression. […] (Table 3 and FIGS. 5, 6 and 7)

Setting [5] is: added hydroxyproline gkg−1: Diet 2 0.7, Diet 3 1.4, Diet 4 2.8, Diet 5 5.6, mean ± SD.
Where [6] appears, read: at 2.9 gkg−1 added Hydroxyproline.

Take `Nc1nc2c(Cc3cccnc3)c[nH]c2c(=O)[nH]1` [BCX-34]: in the series with psoriasis, the “greater improvement in mean lesion scores in the treated group compared to placebos” value is 14%.

In the case of `O=C(O)[C@@H]1C[C@@H](O)CN1` [Hydroxyproline, L-4-Hydroksyproline], the “nutritional requirement indicated by the growth curve” value in series [1] is reported as 2.5-3 g per kg diet. Besides, in series [1] (setting [5]), the “Body weight at end, g” value is given as “growth promoting effect” and the “Weight gain, g/fish” value is given as “growth promoting effect”. In addition, in series [1] (setting [6]), the “increase of weight gain compared with no Hydroxyproline added (Diet 1)” value was 14.0% and the “weight gain at the maximum of the regression equation” value was determined as 155 g. Also, the “added Hydroxyproline at maximum of the weight gain regression equation” value in series [1] (polynomial regression, n=11) came out at 2.9 gkg−1. In addition, in series [1] (specific growth rate, Diets 2-5 = 0.7, 1.4, 2.8, 5.6 gkg−1 added hydroxyproline, mean ± SD), the SGR result is on record as “growth promoting effect”. Moreover, in series [1] (thermal growth coefficient, Diets 2-5 = 0.7, 1.4, 2.8, 5.6 gkg−1 added hydroxyproline, mean ± SD), the TGC result is on record as “growth promoting effect”. In addition, the “dietary level above which the negative effects are eliminated” value in series [2] (from retention, plasma and tissue data) is on record as 3-4 g per kg diet. Besides, the “blood plasma levels of Hydroxyproline” value in series [2] (dietary level 0.8 g per kg) is listed as “much lower than previously known (normal values); also recorded: much lower than earlier published (normal values)”. Also, the “blood plasma levels of Hydroxyproline” value in series [2] (dietary levels >4 g per kg) is on record as “very high plasma levels”. Further, the “retention of Hydroxyproline in the fish” value in series [3] (higher dietary levels (>4.5 g per kg diet)) is on record as 20-30%. In addition, the “retention of Hydroxyproline in the fish” value in series [3] (low dietary levels (0.8 g per kg diet)) is about 100%. In series [4], the “Damage on dorsal fin” value was “lesser degree of damage to the dorsal fin”, the Loss of shells result is reported as “lower levels of fish scale loss” and the Wounds on skin result was “lesser degree of wounding”.
